Earlier results as cited in patent publication US4883862A, “Mercaptosuccinyl glycyl-glycyl-glycine a complex thereof with Tc-99m, and methods of making the same” (Albert Einstein College of Medicine - of Yeshiva University, priority 1988, dated 1989).

[1] = 3 hrs after intravenous administration of 500 uCi

For `O=C(O)CNC(=O)c1ccccc1[131I]` [I-131 OIH, o-[^131 I]iodohippurate], the “radiation dose to a normal kidney” value [1] is listed as 47 mrad, the “radiation dose to the bladder wall” value [1] is listed as 1.7 rad and the renal absorbed dose (patients with impaired renal function) is listed as no less than 3 rad.
